# Target: PI3Kα (Homo sapiens (Human), UniProt P42336)
# Test: ADP-Glo Kinase Assay, PI3Kα enzyme activity inhibition
# Details: ADP-Glo; ATP 25 μM; PIP2 50 μg/mL; 1 hour at room temperature
# Chain of PI3Kα (P42336 whole entry): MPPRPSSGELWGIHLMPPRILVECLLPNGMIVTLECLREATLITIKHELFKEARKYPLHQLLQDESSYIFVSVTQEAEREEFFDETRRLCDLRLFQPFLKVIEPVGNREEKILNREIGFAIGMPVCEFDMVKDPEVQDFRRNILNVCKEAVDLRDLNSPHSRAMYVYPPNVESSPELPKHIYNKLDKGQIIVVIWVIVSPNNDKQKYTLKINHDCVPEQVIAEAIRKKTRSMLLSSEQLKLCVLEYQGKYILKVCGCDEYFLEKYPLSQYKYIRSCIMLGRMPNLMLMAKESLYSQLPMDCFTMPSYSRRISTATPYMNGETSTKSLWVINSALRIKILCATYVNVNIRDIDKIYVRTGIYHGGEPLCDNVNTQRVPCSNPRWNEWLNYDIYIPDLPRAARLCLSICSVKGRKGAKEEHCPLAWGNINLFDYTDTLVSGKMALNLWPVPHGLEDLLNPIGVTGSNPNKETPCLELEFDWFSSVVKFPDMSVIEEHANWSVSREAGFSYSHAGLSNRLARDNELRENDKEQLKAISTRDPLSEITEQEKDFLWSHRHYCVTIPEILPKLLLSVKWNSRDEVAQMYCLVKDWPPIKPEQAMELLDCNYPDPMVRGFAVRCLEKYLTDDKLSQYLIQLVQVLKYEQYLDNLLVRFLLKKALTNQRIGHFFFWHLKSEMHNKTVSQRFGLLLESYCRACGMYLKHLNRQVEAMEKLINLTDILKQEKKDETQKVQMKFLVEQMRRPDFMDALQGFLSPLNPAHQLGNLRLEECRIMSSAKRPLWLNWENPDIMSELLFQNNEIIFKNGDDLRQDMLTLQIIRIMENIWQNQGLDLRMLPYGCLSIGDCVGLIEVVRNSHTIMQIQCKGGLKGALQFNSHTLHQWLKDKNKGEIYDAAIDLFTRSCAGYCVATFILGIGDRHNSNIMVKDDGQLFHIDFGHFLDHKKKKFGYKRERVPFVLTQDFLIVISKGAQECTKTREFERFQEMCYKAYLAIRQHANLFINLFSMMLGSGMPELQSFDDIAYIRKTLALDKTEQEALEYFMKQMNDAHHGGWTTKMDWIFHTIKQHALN
# Chain of PI3Kα (P27986 whole entry partner): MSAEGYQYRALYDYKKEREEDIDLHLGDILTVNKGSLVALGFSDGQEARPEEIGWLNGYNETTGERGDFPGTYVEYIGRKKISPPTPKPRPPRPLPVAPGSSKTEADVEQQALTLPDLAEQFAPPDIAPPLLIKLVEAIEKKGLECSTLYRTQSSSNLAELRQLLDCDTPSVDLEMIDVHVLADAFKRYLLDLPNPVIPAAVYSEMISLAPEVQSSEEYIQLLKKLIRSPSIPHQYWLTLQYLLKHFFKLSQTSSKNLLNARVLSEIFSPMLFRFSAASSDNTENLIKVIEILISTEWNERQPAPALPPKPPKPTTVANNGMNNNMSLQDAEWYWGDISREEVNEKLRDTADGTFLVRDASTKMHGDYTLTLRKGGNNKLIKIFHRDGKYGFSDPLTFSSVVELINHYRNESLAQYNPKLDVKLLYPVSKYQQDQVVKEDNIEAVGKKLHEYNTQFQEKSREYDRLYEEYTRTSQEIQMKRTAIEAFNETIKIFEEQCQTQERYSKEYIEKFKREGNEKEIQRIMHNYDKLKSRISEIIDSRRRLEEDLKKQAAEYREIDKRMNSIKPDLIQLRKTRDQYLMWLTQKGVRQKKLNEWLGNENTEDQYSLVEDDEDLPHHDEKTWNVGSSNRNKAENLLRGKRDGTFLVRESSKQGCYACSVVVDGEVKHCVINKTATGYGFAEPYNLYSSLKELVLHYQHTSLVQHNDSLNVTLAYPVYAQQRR
row,PI3Kaα IC50,Structure (SMILES)
1,+++ (+++ represents IC50>10 μM),"N#Cc1cc(NC(=O)c2cc(F)cc(C(F)(F)F)c2)c2c3c1CCN3C(=O)NC2c1cc(Cl)ccc1Cl (single isomer, unassigned) [YL101-P2]"
2,+++ (+++ represents IC50>10 μM),Cc1ccccc1C1NC(=O)c2cccc3ccc(NC(=O)c4csc5ccccc45)c1c23 (stereo not drawn) [YL004]
3,++ (++ represents 250 nM<IC50<=10 μM),O=C(Nc1cc(NC(=O)C(F)(F)F)c2c3c1C(c1cc(F)ccc1Cl)NC(=O)N3CC2)c1cc(F)cc(C(F)(F)F)c1 (stereo not drawn) [YL009]
4,++ (++ represents 250 nM<IC50<=10 μM),[N-]=[N+]=Nc1cc(NC(=O)c2cc(F)cc(C(F)(F)F)c2)c2c3c1CCN3C(=O)NC2c1cc(F)ccc1Cl (stereo not drawn) [YL011]
5,++ (++ represents 250 nM<IC50<=10 μM),O=C(Nc1cc(N2CC(F)(F)C2)c2c3c1C(c1cc(F)ccc1Cl)NC(=O)N3CC2)c1cc(F)cc(C(F)(F)F)c1 (stereo not drawn) [YL012]
6,++ (++ represents 250 nM<IC50<=10 μM),Nc1n[nH]c2ccc(-c3cc(NC(=O)c4cc(F)cc(C(F)(F)F)c4)c4c5c3CCN5C(=O)NC4c3cc(F)ccc3Cl)cc12 (stereo not drawn) [YL013]
7,++ (++ represents 250 nM<IC50<=10 μM),Cn1nc(C(F)(F)F)cc1-c1cc(NC(=O)c2cc(F)cc(C(F)(F)F)c2)c2c3c1CCN3C(=O)NC2c1cc(F)ccc1Cl (stereo not drawn) [YL014]
8,++ (++ represents 250 nM<IC50<=10 μM),Cn1cc(-c2cc(NC(=O)c3cc(F)cc(C(F)(F)F)c3)c3c4c2CCN4C(=O)NC3c2cc(F)ccc2Cl)cn1 (stereo not drawn) [YL015]
9,++ (++ represents 250 nM<IC50<=10 μM),O=C(Nc1cc(-c2cnoc2)c2c3c1C(c1cc(F)ccc1Cl)NC(=O)N3CC2)c1cc(F)cc(C(F)(F)F)c1 (stereo not drawn) [YL018]
10,++ (++ represents 250 nM<IC50<=10 μM),O=C(Nc1cc(B(O)O)c2c3c1C(c1cc(F)ccc1Cl)NC(=O)N3CC2)c1cc(F)cc(C(F)(F)F)c1 (stereo not drawn) [YL019]
11,+++ (+++ represents IC50>10 μM),Cc1cc(NC(=O)c2cc(F)cc(C(F)(F)F)c2)c2c3c1CCN3C(=O)NC2c1cc(F)ccc1Cl (stereo not drawn) [YL020]
12,++ (++ represents 250 nM<IC50<=10 μM),O=C(Nc1cc(F)c2c3c1C(c1cc(F)ccc1Cl)NC(=O)N3CC2)c1cc(F)cc(C(F)(F)F)c1 (stereo not drawn) [YL021]
13,++ (++ represents 250 nM<IC50<=10 μM),O=C(Nc1cc(NC2CC2)c2c3c1C(c1cc(F)ccc1Cl)NC(=O)N3CC2)c1cc(F)cc(C(F)(F)F)c1 (stereo not drawn) [YL022]
14,++ (++ represents 250 nM<IC50<=10 μM),O=C(Nc1cc(Nc2cnn(C3CCOCC3)c2)c2c3c1C(c1cc(F)ccc1Cl)NC(=O)N3CC2)c1cc(F)cc(C(F)(F)F)c1 (stereo not drawn) [YL023]
15,++ (++ represents 250 nM<IC50<=10 μM),O=C(Nc1cc(NC2COC2)c2c3c1C(c1cc(F)ccc1Cl)NC(=O)N3CC2)c1cc(F)cc(C(F)(F)F)c1 (stereo not drawn) [YL027]
16,++ (++ represents 250 nM<IC50<=10 μM),O=C(Nc1cc(NC2CCOCC2)c2c3c1C(c1cc(F)ccc1Cl)NC(=O)N3CC2)c1cc(F)cc(C(F)(F)F)c1 (stereo not drawn) [YL028]
17,+++ (+++ represents IC50>10 μM),C[C@H](O)C(=O)Nc1cc(NC(=O)c2cc(F)cc(C(F)(F)F)c2)c2c3c1CCN3C(=O)NC2c1cc(F)ccc1Cl (stereo partly drawn) [YL030]
18,+++ (+++ represents IC50>10 μM),C[C@@H](O)C(=O)Nc1cc(NC(=O)c2cc(F)cc(C(F)(F)F)c2)c2c3c1CCN3C(=O)NC2c1cc(F)ccc1Cl (stereo partly drawn) [YL031]
19,++ (++ represents 250 nM<IC50<=10 μM),O=C1NC(c2cc(F)ccc2Cl)c2c(-c3nc4c(F)cc(C(F)(F)F)cc4[nH]3)ccc3c2N1CC3 (stereo not drawn) [YL032]
20,++ (++ represents 250 nM<IC50<=10 μM),O=C(Nc1cc(-c2c[nH]c3ncc(C(F)(F)F)cc23)c2c3c1C(c1cc(F)ccc1Cl)NC(=O)N3CC2)c1cc(F)cc(C(F)(F)F)c1 (stereo not drawn) [YL036]

row,PI3Kaα IC50,Structure (SMILES)
1,++ (++ represents 250 nM<IC50<=10 μM),O=C1NC(c2cc(F)ccc2Cl)c2c(Nc3nccc4c(C(F)(F)F)cc(F)cc34)cc(Br)c3c2N1CC3 (stereo not drawn) [YL042]
2,++ (++ represents 250 nM<IC50<=10 μM),Nc1cc(-c2cc(Nc3nccc4c(C(F)(F)F)cc(F)cc34)c3c4c2CCN4C(=O)NC3c2cc(F)ccc2Cl)n[nH]1 (stereo not drawn) [YL044]
3,+++ (+++ represents IC50>10 μM),O=C1NC(c2cc(F)ccc2Cl)c2c(Nc3nccc4c(C(F)(F)F)cc(F)cc34)cc(F)c3c2N1CC3 (stereo not drawn) [YL045]
4,++ (++ represents 250 nM<IC50<=10 μM),O=C(Nc1cc(-c2c(C(F)(F)F)n[nH]c2C2CC2)c2c3c1C(c1cc(F)ccc1Cl)NC(=O)N3CC2)c1cc(F)cc(C(F)(F)F)c1 (stereo not drawn) [YL048]
5,+++ (+++ represents IC50>10 μM),O=C(Nc1cc(-c2c(C(F)(F)F)n[nH]c2-c2ccccc2)c2c3c1C(c1cc(F)ccc1Cl)NC(=O)N3CC2)c1cc(F)cc(C(F)(F)F)c1 (stereo not drawn) [YL049]
6,++ (++ represents 250 nM<IC50<=10 μM),O=C1NC(c2cc(F)ccc2Cl)c2c(Nc3nccc4c(C(F)(F)F)cc(F)cc34)ccc3c2N1CC3 (stereo not drawn) [YL050]
7,+++ (+++ represents IC50>10 μM),O=C1NC(c2cc(F)ccc2Cl)c2c(Nc3ncnc4c(Cl)cc(F)cc34)ccc3c2N1CC3 (stereo not drawn) [YL052]
8,++ (++ represents 250 nM<IC50<=10 μM),Nc1cc(-c2cc(NC(=O)c3cc(F)cc(C(F)(F)F)c3)c3c4c2CCN4C(=O)NC3c2cc(F)ccc2Cl)[nH]n1 (stereo not drawn) [YL053]
9,++ (++ represents 250 nM<IC50<=10 μM),O=C(Nc1cc(-c2ccn[nH]2)c2c3c1C(c1cc(F)ccc1Cl)NC(=O)N3CC2)c1cc(F)cc(C(F)(F)F)c1 (stereo not drawn) [YL054]
10,+++ (+++ represents IC50>10 μM),Nc1cc(NC(=O)c2cc(F)cc(C(F)(F)F)c2)c2c3c1CCN3C(=O)NC2c1cccc2ccccc12 (stereo not drawn) [YL060]
11,+++ (+++ represents IC50>10 μM),O=C(Nc1cc(-c2nn(Cc3ccccc3)cc2F)c2c3c1C(c1cc(F)ccc1Cl)NC(=O)N3CC2)c1cc(F)cc(C(F)(F)F)c1 (stereo not drawn) [YL061]
12,+++ (+++ represents IC50>10 μM),O=C(Nc1cc(Br)c2c3c1C(c1cccc(F)c1)NC(=O)N3CC2)c1cc(F)cc(C(F)(F)F)c1 (stereo not drawn) [YL062]
13,++ (++ represents 250 nM<IC50<=10 μM),O=C(Nc1cc(Br)c2c3c1C(c1cc(F)ccc1Br)NC(=O)N3CC2)c1cc(F)cc(C(F)(F)F)c1 (stereo not drawn) [YL063]
14,+++ (+++ represents IC50>10 μM),O=C(Nc1cc(Br)c2c3c1C(c1ccccc1Cl)NC(=O)N3CC2)c1cc(F)cc(C(F)(F)F)c1 (stereo not drawn) [YL066]
15,+++ (+++ represents IC50>10 μM),Cc1ncc(-c2cc(NC(=O)c3cc(F)cc(C(F)(F)F)c3)c3c4c2CCN4C(=O)NC3c2cc(F)ccc2Cl)[nH]1 (stereo not drawn) [YL067]
16,++ (++ represents 250 nM<IC50<=10 μM),Cc1nc[nH]c1-c1cc(NC(=O)c2cc(F)cc(C(F)(F)F)c2)c2c3c1CCN3C(=O)NC2c1cc(F)ccc1Cl (stereo not drawn) [YL068]
17,+++ (+++ represents IC50>10 μM),C#Cc1cc(NC(=O)c2cc(F)cc(C(F)(F)F)c2)c2c3c1CCN3C(=O)NC2c1cc(F)ccc1Cl (stereo not drawn) [YL069]
18,+++ (+++ represents IC50>10 μM),Cc1cc(-c2cc(NC(=O)c3cc(F)cc(C(F)(F)F)c3)c3c4c2CCN4C(=O)NC3c2cc(F)ccc2Cl)n[nH]1 (stereo not drawn) [YL070]
19,++ (++ represents 250 nM<IC50<=10 μM),O=C(Nc1cc(-c2cn[nH]c2C(F)(F)F)c2c3c1C(c1cc(F)ccc1Cl)NC(=O)N3CC2)c1cc(F)cc(C(F)(F)F)c1 (stereo not drawn) [YL071]
20,++ (++ represents 250 nM<IC50<=10 μM),Cc1n[nH]c(C(F)(F)F)c1-c1cc(NC(=O)c2cc(F)cc(C(F)(F)F)c2)c2c3c1CCN3C(=O)NC2c1cc(F)ccc1Cl (stereo not drawn) [YL072]

row,Structure (SMILES),PI3Kaα IC50
1,O=C(Nc1cc(Br)c2c3c1C(c1ccccc1)NC(=O)N3CC2)c1cc(F)cc(C(F)(F)F)c1 (stereo not drawn) [YL064],+++ (+++ represents IC50>10 μM)

# Same assay, conditions: PI3Kaα IC50, ADP-Glo; ATP 25 μM; PIP2 50 μg/mL; 1 hour at room temperature
row,IC50,Structure (SMILES)
1,> 10 µM,"O=C(Nc1cc(Br)c2c3c1C(c1cc(F)ccc1Cl)NC(=O)N3CC2)c1cc(F)cc(C(F)(F)F)c1 (single isomer, unassigned) [YL079-P1]"
2,0.25 to 10 µM,"O=C(Nc1cc(Br)c2c3c1C(c1cc(F)ccc1Cl)NC(=O)N3CC2)c1cc(F)cc(C(F)(F)F)c1 (single isomer, unassigned) [YL079-P2]"
3,> 10 µM,"N#Cc1cc(NC(=O)c2cc(F)cc(C(F)(F)F)c2)c2c3c1CCN3C(=O)NC2c1cc(Cl)ccc1Cl (single isomer, unassigned) [YL101-P1]"
4,> 10 µM,"Cn1nc2c(C#N)cc(NC(=O)c3cc(F)cc(C(F)(F)F)c3)c3c2c1C(=O)NC3c1cc(F)ccc1Cl (single isomer, unassigned) [YL102-P2]"
5,> 10 µM,"N#Cc1c(-c2cc(NC(=O)c3cc(F)cc(C(F)(F)F)c3)c3c4c2CCN4C(=O)NC3c2cc(F)ccc2Cl)ccc2ncnn12 (single isomer, unassigned) [YL108-P2]"
6,> 10 µM,"N#Cc1c(-c2cc(NC(=O)c3cc(F)cc(C(F)(F)F)c3)c3c4c2CCN4C(=O)NC3c2cc(Cl)ccc2Cl)ccc2ncnn12 (single isomer, unassigned) [YL109-P2]"
7,> 10 µM,"Cn1nc2c(C#N)cc(NC(=O)c3cc(F)cc(C(F)(F)F)c3)c3c2c1C(=O)NC3c1cc(Cl)ccc1Cl (single isomer, unassigned) [YL111-P2]"
8,0.25 to 10 µM,Nc1n[nH]cc1-c1cc(NC(=O)c2cc(F)cc(C(F)(F)F)c2)c2c3c1CCN3C(=O)NC2c1cc(F)ccc1Cl (stereo not drawn) [YL073]
9,0.25 to 10 µM,O=C(Nc1cc(-c2c[nH]cn2)c2c3c1C(c1cc(F)ccc1Cl)NC(=O)N3CC2)c1cc(F)cc(C(F)(F)F)c1 (stereo not drawn) [YL074]
10,0.25 to 10 µM,O=C(Nc1cc(O)c2c3c1C(c1cc(F)ccc1Cl)NC(=O)N3CC2)c1cc(F)cc(C(F)(F)F)c1 (stereo not drawn) [YL076]
11,0.25 to 10 µM,Nc1cc(Nc2nccc3c(C(F)(F)F)cc(F)cc23)c2c3c1CCN3C(=O)NC2c1cc(F)ccc1Cl (stereo not drawn) [YL086]
12,0.25 to 10 µM,N=C(N)Nc1cc(NC(=O)c2cc(F)cc(C(F)(F)F)c2)c2c3c1CCN3C(=O)NC2c1cc(F)ccc1Cl (stereo not drawn) [YL088]
13,0.25 to 10 µM,Nc1cc(-c2nc3c(F)cc(C(F)(F)F)cc3[nH]2)c2c3c1CCN3C(=O)NC2c1cc(F)ccc1Cl (stereo not drawn) [YL092]
14,0.25 to 10 µM,Nc1cc(NC(=O)c2cc(F)cc(C(F)(F)F)c2)c2c3c1CCN3C(=O)NC2c1cc(Cl)ccc1Cl (stereo not drawn) [YL094]

row,Structure (SMILES),IC50
1,O=C(Nc1cc(Br)c2c3c1C(c1cc(Cl)ccc1Cl)NC(=O)N3CC2)c1cc(F)cc(C(F)(F)F)c1 (stereo not drawn) [YL093],0.25 to 10 µM
2,Nc1cc(NC(=O)c2cc(F)cc(C(F)(F)F)c2)c2c3c1CCN3C(=O)NC2c1cc(Cl)ccc1C(F)(F)F (stereo not drawn) [YL095],0.25 to 10 µM

# — patent US20240158408A1, “Nitrogen-Containing Heterocyclic Compound, Pharmaceutical Compositions thereof and Use thereof” (280 Bio, Inc., priority 2022, published 2024)
